Data as given in US9173842B2, “Stable pharmaceutical composition comprising a hydrosoluble vinflunine salt” (PIERRE FABRE MEDICAMENT, priority 2007, dated 2015).

Test: Stability tests at 5° C. and 25° C. under sealed conditions after 3 months (impurity content)
Type: physicochemical
Settings: sealed packaging, % of the total weight of the composition
Protocol: The composition in the forms of capsule A and B were packaged in sealed packers. They were stored for 3 months at 5° C. at an external humidity level of 20%, or at 25° C. at an external humidity level of 60%.
The weight content in impurities (in % of the total weight of the composition) was assayed immediately […], then after 3 months of storage. The difference between these two percentages gives the change in impurity content.
It is compared to that obtained for freeze-dried vinflunine ditartrate stored under the same conditions.

vinflunine ditartrate
Changes in impurity levels at 5° C. (3 months at 5° C., external humidity 20%): +0.8%
Changes in impurity levels at 25° C. (3 months at 25° C., external humidity 60%): +1.9%
